These results are taken from patent US20250160718A1, “SYSTEMS AND METHODS FOR HIGH-DENSITY LONG-TERM INTRACELLULAR ELECTROPHYSIOLOGY” (President and Fellows of Harvard College, priority 2022, published 2025).

In assay [1] the test system is MDCK cells. In words: Wound healing assay (electrochemical patterning and cross-electrode impedance mapping of regrowth). In kind it is cell-based, Canine. To be noted: 1 μM, over the course of 72 hours; control culture shows regrowth after 72 hours. An excerpt: This example describes a combined application of cross-electrode impedance mapping and cell patterning for a wound healing assay. Such assays may be used to gauge cell growth rate and metabolism and may be useful for screening drugs affecting these parameters. Compared to the electrochemical patterning described herein, other tools mechanically generate a wound in a cell culture via a mechanical scratch which is both difficult to control and limiting in terms of wound pattern.
In this example, a wound is made in MDCK cells and then growth is mapped in real time. […] These patterns were defined by applying electrode currents of −10 nA for 40 s versus a Ag/AgCl pseudo reference electrode. The regrowth of the culture was then measured using the impedance mapping method.

The subject of assay [2] is MDCK cells. On the procedure:
This example describes a technique that uses cross-electrode impedance mapping to quantify adhesion or adherence of cells in a cell culture. The terms “adhesion” and “adherence” may be used interchangeably herein.
In this example, ethylenediaminetetraacetic acid (EDTA) was applied to the cells. EDTA is a calcium chelator that removes Ca^2+ needed for integrin proteins to maintain cell adhesion. With EDTA applied, the cells quickly detached over a duration of time of about 50 min. The EDTA was then washed out by adding normal culture media, where the cells re-attached over a duration of time of about 200 min.
FIG. 6b is a data plot showing mean normalized impedance values over time for different regions of a map 601 of an electrode array in the cell culture. FIG. 6c show histograms of the normalized impedance values before, during, and after a washout of EDTA across the electrode array.

With `C=C1[C@@H](C)[C@H]2[C@H](Cc3ccccc3)NC(=O)[C@]23OC(=O)/C=C/[C@H](O)CCC[C@@H](C)C/C=C/[C@H]3[C@@H]1O` [cytochalasin B], the “regrowth of the culture into the wound” value in assay [1] is “very little growth”. On to `O=C(O)CN(CCN(CC(=O)O)CC(=O)O)CC(=O)O` [EDTA, ethylenediaminetetraacetic acid], for which the “duration of time over which the cells detached” value in assay [2] (5 mM EDTA application) was “about 50 min”. The “duration of time over which the cells re-attached after washout” value in assay [2] (EDTA washed out by adding normal culture media) is listed as “about 200 min”.
